ChEMBL document CHEMBL1201862, “PubChem BioAssay data set” (2004)
Active and inactive are the calls of the source.

Legend:
Albumin = Albumin (Bos taurus, UniProt P02769); test: Counterscreen for inhibitors of T-cell receptor (TCR)-CD3 interaction: Fluorescence-based biochemical high throughput dose response assay to identify inhibitors of T-cell receptor (TCR)-CD3 interaction using a TAMRA-labeled BSA probe.; type: functional
Mu-type opioid receptor = Mu-type opioid receptor (Homo sapiens, UniProt P35372); type: functional, cell-based;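 also: U2OS cells with beta-arrestin recruitment to OPRM1 by beta-gal complementation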
[1] = biological target: 5-hydroxytryptamine receptor 2A (Mus musculus, UniProt P35363); type: functional, cell-based;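 also: CHO-K1 cells with tagged receptor and beta-arrestin; agonist potency measured as compound-induced activation of the receptor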
5-hydroxytryptamine receptor 2A, sequence (P35363 whole entry): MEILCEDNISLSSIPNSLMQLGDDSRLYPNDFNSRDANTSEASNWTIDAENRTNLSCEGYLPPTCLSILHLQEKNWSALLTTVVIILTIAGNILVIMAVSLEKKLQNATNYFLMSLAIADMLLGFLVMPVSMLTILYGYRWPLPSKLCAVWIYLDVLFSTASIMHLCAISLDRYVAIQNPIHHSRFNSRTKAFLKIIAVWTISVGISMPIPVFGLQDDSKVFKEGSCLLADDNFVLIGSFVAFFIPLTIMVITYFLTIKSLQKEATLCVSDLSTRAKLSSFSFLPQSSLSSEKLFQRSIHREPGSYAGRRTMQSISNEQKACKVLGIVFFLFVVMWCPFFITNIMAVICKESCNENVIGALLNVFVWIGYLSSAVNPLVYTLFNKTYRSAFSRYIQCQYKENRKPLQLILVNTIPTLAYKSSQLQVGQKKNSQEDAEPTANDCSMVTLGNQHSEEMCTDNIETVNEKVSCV

HeLa = test: HeLa cell cytotoxicity, dose response, cytotoxicity control, ATP luminescence, cherry-pick samples (AID 687004); type: functional, cell-based; conditions: Homo sapiens
[2] = inhibitors of HIV Env-driven cell fusion, dose response, cherry-pick (AID 652057); type: functional, cell-based
[3] = ZM109 Env clade C HIV-1 fusion inhibitors, dose response, HeLa effector, CEM target cells, luciferase, cherry-pick (AID 652058); type: functional, cell-based
Paired box protein Pax-8 = Paired box protein Pax-8 (Homo sapiens, UniProt Q06710); test: inhibitors of PAX8-driven TPO luciferase reporter, dose response, RMG-I cells, cherry-pick (AID 687027); type: functional, cell-based;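 also: luciferase reporter driven by Pax8 target thyroperoxidase promoter measured by SteadyGlo luminescence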
Paired box protein Pax-8, sequence (Q06710 whole entry, the tested form may be a part): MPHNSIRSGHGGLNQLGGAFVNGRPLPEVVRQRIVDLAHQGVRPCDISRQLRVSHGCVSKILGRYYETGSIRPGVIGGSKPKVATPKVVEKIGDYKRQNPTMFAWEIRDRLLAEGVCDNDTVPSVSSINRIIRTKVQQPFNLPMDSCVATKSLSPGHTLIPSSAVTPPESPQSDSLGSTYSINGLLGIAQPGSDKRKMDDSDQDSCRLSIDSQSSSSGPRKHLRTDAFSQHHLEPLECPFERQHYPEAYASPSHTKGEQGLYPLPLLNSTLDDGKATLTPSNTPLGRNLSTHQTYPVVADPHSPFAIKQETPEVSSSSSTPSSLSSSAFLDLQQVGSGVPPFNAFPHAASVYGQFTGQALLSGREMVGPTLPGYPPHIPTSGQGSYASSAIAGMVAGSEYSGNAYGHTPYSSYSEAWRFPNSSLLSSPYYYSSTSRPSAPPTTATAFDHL

[4] = inhibitors of clade B AD8 Env fusion, dose response, cell-based, cherry-pick (AID 652062); type: functional;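 also: luciferase signal from cell-cell fusion driven by HIV-1 clade B AD8 Env; potency is for inhibitors of fusion seen as a drop in luminescence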
[5] = PAX2 cell-based inhibition, dose response, selectivity assay for PAX8 inhibitor project, plate reader, dry powder samples (AID 743048); type: functional;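 also: HEK293 cells carrying a WT1 promoter luciferase reporter driven by expressed Pax2; potency is for inhibition of Pax2 driven reporter signal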
[6] = PAX5 activity inhibitors, dose response, selectivity assay for PAX8 inhibitor project, cell-based, plate reader, dry powder samples (AID 743047); type: functional;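 also: HEK293 cells carrying a Pax5 driven CD19 promoter luciferase reporter; potency of inhibitors that lower reporter luminescence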
[7] = cytotoxicity in OVCAR4 cells, dose response, cytotoxicity control for PAX8 inhibitor project, cell-based, plate reader, dry powder, SA11 (AID 743150); type: functional; conditions: OVCAR-4
[8] = cytotoxicity in COV434 cells, dose response, cytotoxicity control for PAX8 inhibitor project, cell-based, plate reader, dry powder, SA7 (AID 743145); type: functional
[9] = cytotoxicity dependent on PAX8, dose response, cell-based, plate reader, dry powder (AID 743049); type: functional
[10] = P. falciparum 3D7-ScDHODH growth inhibitors, dose response, SYBR Green, dry powder samples (AID 1159570); type: functional, cell-based;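 also: parasite growth measured after 72 hours of compound exposure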
[11] = P. falciparum Dd2 growth inhibitors, dose response, SYBR Green, cherry-picked samples (AID 1159567); type: functional, cell-based
[12] = P. falciparum Dd2 growth inhibitors, dose response, SYBR Green, dry powder samples (AID 1159566); type: functional, cell-based;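 also: potency for growth inhibition with lower SYBR green DNA signal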
[13] = HepG2 cell cytotoxicity, dose response, cytotoxicity control, cherry-picked samples (AID 1159577); type: functional, cell-based
[14] = P. falciparum ATP4 D1247Y mutant growth inhibitors, dose response, NITD609-resistant line, SYBR Green, dry powder (AID 1159571); type: functional, cell-based;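 also: parasites synchronized at ring stage by sorbitol before testing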
[15] = A2780 ovarian cancer cell cytotoxicity, dose response, cytotoxicity control, plate reader, dry powder samples (AID 743046); type: functional, cell-based
[16] = NIH:OVCAR-3 ovarian cancer cell cytotoxicity, dose response, PAX8 inhibitor project, plate reader, dry powder samples (AID 743044); type: functional, cell-based
[17] = non-specific cell cytotoxicity, dose response, cytotoxicity control for PAX8 inhibitor project, plate reader, dry powder samples (AID 743021); type: functional, cell-based
[18] = cytotoxicity in OVCAR8 ovarian cancer cells, dose response, PAX8 project, cell-based, plate reader, dry powder samples (AID 743197); type: functional; conditions: OVCAR-8
[19] = T. cruzi growth inhibition in host cells, dose response, cell-based, plate reader, dry powder, set 2 (AID 652275); type: functional
[20] = HEK293T cytotoxicity, dose response, cytotoxicity control for miR-122 modulator project, cell-based, inhibitor set, cherry-pick, set 2 (AID 720697); type: functional
Protein Wnt-3a = Protein Wnt-3a (Mus musculus, UniProt P27467); test: SAR analysis of small molecule antagonists of Gli-SUFU in a Wnt3a luminescent reporter assay.; type: functional
Protein Wnt-3a, sequence (P27467 whole entry): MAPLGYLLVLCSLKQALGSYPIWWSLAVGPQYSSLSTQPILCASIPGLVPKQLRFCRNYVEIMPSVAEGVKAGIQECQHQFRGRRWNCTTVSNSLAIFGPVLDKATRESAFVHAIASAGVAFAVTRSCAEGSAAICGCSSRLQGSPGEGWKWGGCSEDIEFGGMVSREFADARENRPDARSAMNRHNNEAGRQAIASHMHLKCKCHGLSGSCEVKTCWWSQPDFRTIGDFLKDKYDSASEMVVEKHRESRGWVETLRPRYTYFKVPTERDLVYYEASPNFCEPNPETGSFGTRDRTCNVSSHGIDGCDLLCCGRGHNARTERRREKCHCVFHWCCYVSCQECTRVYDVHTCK

[21] = biological target: 1-phosphatidylinositol 4,5-bisphosphate phosphodiesterase gamma-1 (Homo sapiens, UniProt P19174); test: Counterscreen for inhibitors of phospholipase C isozymes (PLC-B3): Fluorescence-based biochemical high throughput dose response assay to identify inhibitors of phospholipase C isozymes (PLC-gamma1).
1-phosphatidylinositol 4,5-bisphosphate phosphodiesterase gamma-1, sequence (P19174 whole entry): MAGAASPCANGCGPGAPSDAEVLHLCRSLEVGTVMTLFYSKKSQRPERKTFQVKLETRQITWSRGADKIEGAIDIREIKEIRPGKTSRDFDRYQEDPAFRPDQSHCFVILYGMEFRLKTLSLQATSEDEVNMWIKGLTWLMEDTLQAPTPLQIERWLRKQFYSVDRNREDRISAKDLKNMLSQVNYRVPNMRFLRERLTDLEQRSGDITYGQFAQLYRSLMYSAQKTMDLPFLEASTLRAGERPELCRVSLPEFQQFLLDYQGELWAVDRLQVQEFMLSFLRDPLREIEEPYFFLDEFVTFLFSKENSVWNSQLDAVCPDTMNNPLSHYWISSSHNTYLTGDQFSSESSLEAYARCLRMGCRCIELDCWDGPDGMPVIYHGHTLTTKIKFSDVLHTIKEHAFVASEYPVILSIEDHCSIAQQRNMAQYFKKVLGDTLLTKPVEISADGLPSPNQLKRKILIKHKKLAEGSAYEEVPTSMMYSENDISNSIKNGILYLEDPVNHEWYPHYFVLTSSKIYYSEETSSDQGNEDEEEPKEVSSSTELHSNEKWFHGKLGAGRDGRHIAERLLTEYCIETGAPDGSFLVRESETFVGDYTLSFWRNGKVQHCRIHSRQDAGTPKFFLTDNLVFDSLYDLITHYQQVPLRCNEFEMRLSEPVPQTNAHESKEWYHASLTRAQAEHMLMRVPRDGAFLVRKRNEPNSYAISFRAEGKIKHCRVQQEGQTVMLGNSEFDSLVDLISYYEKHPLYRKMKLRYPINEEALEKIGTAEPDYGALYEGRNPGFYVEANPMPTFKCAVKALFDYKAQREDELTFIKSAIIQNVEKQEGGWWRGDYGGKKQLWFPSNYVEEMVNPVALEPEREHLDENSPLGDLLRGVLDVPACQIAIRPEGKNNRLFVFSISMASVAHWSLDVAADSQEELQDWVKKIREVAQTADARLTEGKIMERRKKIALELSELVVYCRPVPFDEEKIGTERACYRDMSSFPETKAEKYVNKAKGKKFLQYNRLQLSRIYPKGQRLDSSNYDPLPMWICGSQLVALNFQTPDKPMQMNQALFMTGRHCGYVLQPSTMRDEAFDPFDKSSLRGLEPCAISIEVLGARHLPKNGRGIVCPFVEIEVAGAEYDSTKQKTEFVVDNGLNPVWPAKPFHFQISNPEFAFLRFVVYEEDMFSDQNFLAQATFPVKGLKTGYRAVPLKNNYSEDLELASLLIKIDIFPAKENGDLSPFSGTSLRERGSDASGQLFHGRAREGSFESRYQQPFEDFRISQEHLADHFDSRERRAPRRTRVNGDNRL

[22] = biological target: 1-phosphatidylinositol 4,5-bisphosphate phosphodiesterase beta-3 (Homo sapiens, UniProt Q01970); test: Fluorescence-based biochemical high throughput dose response assay to identify inhibitors of phospholipase C isozymes (PLC-B3).
1-phosphatidylinositol 4,5-bisphosphate phosphodiesterase beta-3, sequence (Q01970 whole entry): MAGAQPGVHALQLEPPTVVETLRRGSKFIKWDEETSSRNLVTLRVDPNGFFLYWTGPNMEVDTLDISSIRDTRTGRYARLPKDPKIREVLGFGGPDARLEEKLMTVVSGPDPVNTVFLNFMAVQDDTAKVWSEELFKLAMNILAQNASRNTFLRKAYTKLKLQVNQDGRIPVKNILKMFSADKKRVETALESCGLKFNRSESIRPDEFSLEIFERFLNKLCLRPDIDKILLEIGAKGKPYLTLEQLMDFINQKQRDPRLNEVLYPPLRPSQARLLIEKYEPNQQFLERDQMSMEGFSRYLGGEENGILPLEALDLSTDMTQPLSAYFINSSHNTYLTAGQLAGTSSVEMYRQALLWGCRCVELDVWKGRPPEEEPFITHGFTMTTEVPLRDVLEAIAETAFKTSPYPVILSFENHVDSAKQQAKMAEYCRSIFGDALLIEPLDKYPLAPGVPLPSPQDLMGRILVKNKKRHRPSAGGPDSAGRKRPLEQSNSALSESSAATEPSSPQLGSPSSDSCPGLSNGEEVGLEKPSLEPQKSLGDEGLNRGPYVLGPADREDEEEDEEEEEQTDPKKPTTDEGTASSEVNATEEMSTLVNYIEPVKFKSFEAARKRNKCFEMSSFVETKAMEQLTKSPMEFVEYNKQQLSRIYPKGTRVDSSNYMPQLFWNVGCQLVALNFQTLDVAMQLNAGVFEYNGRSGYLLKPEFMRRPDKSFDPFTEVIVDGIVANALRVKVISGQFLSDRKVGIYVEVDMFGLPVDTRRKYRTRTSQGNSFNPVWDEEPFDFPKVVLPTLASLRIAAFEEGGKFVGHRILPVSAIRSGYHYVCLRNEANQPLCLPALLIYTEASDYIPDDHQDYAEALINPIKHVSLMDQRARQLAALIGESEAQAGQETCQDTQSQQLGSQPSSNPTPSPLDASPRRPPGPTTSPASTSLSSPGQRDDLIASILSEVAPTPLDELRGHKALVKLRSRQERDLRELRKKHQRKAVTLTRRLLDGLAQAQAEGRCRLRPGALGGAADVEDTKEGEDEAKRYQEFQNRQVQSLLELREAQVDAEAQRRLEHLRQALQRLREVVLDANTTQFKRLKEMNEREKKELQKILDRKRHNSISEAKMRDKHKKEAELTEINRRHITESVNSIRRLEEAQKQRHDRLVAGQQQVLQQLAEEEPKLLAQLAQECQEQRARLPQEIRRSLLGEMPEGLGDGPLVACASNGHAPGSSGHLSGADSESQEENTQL

[23] = Luminescence Cell-Based Dose Retest to Confirm Inhibitors of Cancer Stem Cells. [Related pubchem assays (depositor defined):AID2717, AID2721]; type: functional; conditions: Homo sapiens
[24] = cytotoxicity in HMLE control line with eGFP shRNA, dose response, counter-screen for HMLE_sh_ECad selective toxicity project, cell-based, HMLE_sh_eGFP, luminescence (AID 463074); type: functional, Homo sapiens;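 also: HMLE human mammary epithelial cells expressing control shRNA against eGFP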
[25] = biological target: T1, Probable nicotinate-nucleotide adenylyltransferase (Staphylococcus aureus (strain N315), UniProt P65502); type: functional, Staphylococcus aureus subsp. aureus N315;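 as to IC50 Mean: confirmatory dose-response retesting of NadD inhibitor hits first found in an ultra-high-throughput screen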
T1 sequence (P65502 whole entry): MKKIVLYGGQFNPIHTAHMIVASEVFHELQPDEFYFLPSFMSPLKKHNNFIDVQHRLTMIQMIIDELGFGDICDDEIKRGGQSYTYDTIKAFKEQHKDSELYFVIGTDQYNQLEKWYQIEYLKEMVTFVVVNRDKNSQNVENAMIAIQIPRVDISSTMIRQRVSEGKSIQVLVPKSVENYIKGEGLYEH

[26] = biological target: T1, Probable nicotinate-nucleotide adenylyltransferase; type: functional, Staphylococcus aureus subsp. aureus N315; conditions: read-out: IC50_Mean
Galanin receptor type 3 = Galanin receptor type 3 (Homo sapiens, UniProt O60755); test: Fluorescence-based cell-based primary high throughput dose response assay to identify antagonists of the Galanin Receptor 3 (GalR3).; type: functional
Galanin receptor type 3, sequence (O60755 whole entry): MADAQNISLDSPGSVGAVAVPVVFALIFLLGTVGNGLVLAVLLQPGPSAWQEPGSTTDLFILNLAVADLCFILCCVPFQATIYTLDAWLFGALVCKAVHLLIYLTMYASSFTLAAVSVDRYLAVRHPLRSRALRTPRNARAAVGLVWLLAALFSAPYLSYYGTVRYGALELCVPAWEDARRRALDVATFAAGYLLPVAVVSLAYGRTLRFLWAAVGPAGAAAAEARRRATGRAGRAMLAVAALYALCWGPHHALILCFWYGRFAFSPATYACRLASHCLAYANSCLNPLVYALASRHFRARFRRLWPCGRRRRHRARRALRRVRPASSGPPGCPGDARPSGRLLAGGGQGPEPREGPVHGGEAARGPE

cells = type: functional, cell-based; conditions: HEK-CNG
[27] = biological target: T2, COUP transcription factor 2 (Homo sapiens, UniProt P24468); test: Luminescence-based cell-based high throughput dose response assay to identify inhibitors of COUP-TFII (NR2F2).; type: functional;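 also: HEK293 cells transiently cotransfected with COUP-TFII expression vector and reporter; luciferase reporter luminescence driven by COUP-TFII from the pX2-168 reporter plasmid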
T2 sequence (P24468 whole entry): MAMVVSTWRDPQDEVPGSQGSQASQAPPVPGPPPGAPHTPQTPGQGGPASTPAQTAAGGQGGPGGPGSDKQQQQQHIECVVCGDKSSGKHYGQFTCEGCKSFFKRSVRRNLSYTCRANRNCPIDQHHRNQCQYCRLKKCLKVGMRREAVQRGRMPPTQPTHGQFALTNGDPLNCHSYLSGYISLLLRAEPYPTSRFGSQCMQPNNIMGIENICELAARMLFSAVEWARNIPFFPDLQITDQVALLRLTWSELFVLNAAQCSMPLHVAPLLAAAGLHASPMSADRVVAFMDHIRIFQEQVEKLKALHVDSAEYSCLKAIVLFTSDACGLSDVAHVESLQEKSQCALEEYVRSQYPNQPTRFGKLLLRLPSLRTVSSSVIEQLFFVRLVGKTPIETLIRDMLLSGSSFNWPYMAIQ

Cytochrome P450 2C9 = Cytochrome P450 2C9 (Homo sapiens, UniProt P11712)
Cytochrome P450 2C9, sequence (P11712 whole entry): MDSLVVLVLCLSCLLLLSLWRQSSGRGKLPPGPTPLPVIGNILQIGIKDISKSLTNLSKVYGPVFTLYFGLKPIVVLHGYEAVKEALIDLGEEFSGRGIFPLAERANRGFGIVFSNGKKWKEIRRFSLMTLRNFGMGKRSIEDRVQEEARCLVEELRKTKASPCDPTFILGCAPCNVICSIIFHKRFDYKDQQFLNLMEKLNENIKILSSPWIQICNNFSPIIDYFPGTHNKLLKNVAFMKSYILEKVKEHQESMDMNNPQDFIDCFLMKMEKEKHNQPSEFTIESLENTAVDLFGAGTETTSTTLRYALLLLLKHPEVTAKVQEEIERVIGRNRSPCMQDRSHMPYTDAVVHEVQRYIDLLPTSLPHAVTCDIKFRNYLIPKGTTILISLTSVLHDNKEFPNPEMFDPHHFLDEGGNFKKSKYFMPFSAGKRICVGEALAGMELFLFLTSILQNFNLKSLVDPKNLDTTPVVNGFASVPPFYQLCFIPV

For CNC(=S)NNC(=O)c1cccn(Cc2ccccc2)c1=O, the IC50 (Albumin) was > 94.2 µM (inactive).

In the case of Fc1ccc(F)c(CN2CCN(c3ncccn3)CC2)c1, the EC50 (Mu-type opioid receptor) is reported as 92.4 µM (inactive) and the EC50 [1] is reported as 0.323 µM (active).

With C[C@@H]1CCCCO[C@H](CN(C)Cc2ccc3c(c2)OCO3)[C@H](C)CN([C@H](C)CO)C(=O)c2cc(NC(=O)Nc3cccc4ccccc34)ccc2O1 the AC50 (HeLa) was 20.1 µM (active).

For COc1cccc(C#Cc2ccc([C@H]3[C@@H](CO)N(C(=O)C4CCCC4)[C@H]3C#N)cc2)c1, the AC50 [2] was 17.8 µM (active), the AC50 [3] was 17 µM (active) and the AC50 (Paired box protein Pax-8) was 3.15 µM (active). For the same compound, the AC50 [4] was 20 µM (active), the AC50 [5] was 30.8 µM (active) and the AC50 [6] was 30.1 µM (active). The AC50 [7] was 37.9 µM (active), the AC50 [8] was 0.00447 µM (active) and the AC50 [9] was 5.77 µM (active). For the same compound, the AC50 [10] was 0.409 µM (active), the AC50 [11] was 0.997 µM (active) and the AC50 [12] was 0.212 µM (active). For the same compound, the AC50 [13] was > 39 µM (inactive) and the AC50 [14] was 0.454 µM (active).

With COc1ccccc1C#Cc1ccc([C@H]2[C@H](C#N)N(C(=O)C3CC3)[C@H]2CO)cc1 the AC50 (Paired box protein Pax-8) was 6.37 µM (active), the AC50 [15] was 0.698 µM (active) and the AC50 [16] was 15.1 µM (active). The AC50 [17] was 1.68 µM (active) and the AC50 [18] was 10.7 µM (active).

In the case of CC(C)N1C[C@H](CN(C)Cc2ccc(Cl)cc2)Oc2c(NC(=O)c3ccncc3)cccc2C1=O, the AC50 [19] is reported as 0.00393 µM (active).

With CN(C(=O)C12CC3CC(CC(C3)C1)C2)C1CCS(=O)(=O)C1 (stereo not drawn) the AC50 [20] was 1.42 µM (active).

For CC(C)N1CC2(CN(CCc3ccccc3)C2)Oc2c(NC(=O)c3ccncc3)cccc2C1=O, the AC50 [19] was 0.252 µM (active).

In the case of O=C(Nc1cc(N2CCCCC2)ncn1)c1cccs1, the IC50 (Protein Wnt-3a) is reported as > 21.8 µM (inactive).

With CC(C)(C)Nc1cc(NC(=O)c2ccccc2)ncn1 the IC50 (Protein Wnt-3a) was > 21.8 µM (inactive).

In the case of Cc1c(/N=C(\S)N/N=C/C=C/c2ccc([N+](=O)[O-])cc2)c(=O)n(-c2ccccc2)n1C, the IC50 [21] is reported as > 123 µM (inactive) and the IC50 [22] is reported as > 123 µM (inactive).

In the case of COc1cc(/C=c2\sc3n(c2=O)C(c2ccccc2)C(c2ccccc2)=NN=3)ccc1O (stereo not drawn), the AC50 [23] is reported as 4.58 µM (active), the AC50 [24] is reported as 38.5 µM (active) and the IC50 [25] is reported as 19.7 µM (active). For the same compound, the IC50 [26] was 57.3 µM (active).

In the case of NC(=O)c1nnn(Cc2cc(Cl)c(C(=O)c3ccc(Cl)cc3)c(Cl)c2)c1N [CARBOXYAMIDOTRIAZOLE], the IC50 (Galanin receptor type 3) is reported as 0.303 µM (active), the EC50 (cells) is reported as > 29.9 µM (inactive) and the IC50 [27] is reported as 9.21 µM (active). For the same compound, the AC50 (Cytochrome P450 2C9) was “inconclusive”.
